Experimental data taken from patent EP4512398A1, “FLURALANER FOR USE IN METHODS OF TREATMENT AND PREVENTION OF SEA LICE INFESTATION IN FISH” (Bimeda Animal Health Limited, priority 2023, dated 2025).

Legend:
[1] = system: Atlantic salmon; test: mortality, adverse effects and behaviour of treated salmon in the proof-of-concept trial; type: in vivo
Description: (§1) A proof-of-concept experiment was carried out to determine the efficacy of fluralaner as a treatment for L. salmonis in farmed Atlantic salmon. Salmon infected with sea lice were divided evenly into three tanks, 41 fish per tank. Tank A acted as a control and no fluralaner was administered to the salmon, Tank B was given a low dog dose (25 mg/ kg of body weight) treatment and Tank C was given a high dog dose treatment (56 mg/ kg body weight). (See bravecto-epar-product-information attached for dosing rates). The powdered form of the drug was administered by mixing with standard aquaculture salmonid feed using fish oil as a binder. The experiment lasted for one week, between the 4/08/23 and the 11/08/23.
Samples have been retained for histology and residue testing.

[2] = system: L. salmonis; test: proof-of-concept efficacy experiment: fluralaner in feed to sea-lice-infected farmed Atlantic salmon, lice counts; type: in vivo; conditions: for Average lice per fish / Total lice: 15 salmon sampled
Description: as §1

[3] = Tank B, 25 mg/ kg of body weight oral in feed, 04/08/2023 (start of experiment, baseline)
[4] = Tank C, 56 mg/ kg body weight oral in feed, 04/08/2023 (start of experiment, baseline)

## Cc1cc(C2=NOC(c3cc(Cl)cc(Cl)c3)(C(F)(F)F)C2)ccc1C(=O)NCC(=O)NCC(F)(F)F (stereo not shown) [fluralaner, Fluralaner]
[1]; during the trial period or since its discontinuation
  mortalities: no mortalities
[1]; trial period
  adverse effects on the salmon: no obvious adverse effects
  behaviour of the salmon: normal
[2]; [3]
  Average lice per fish: 25.8
  Total lice: 387
[2]; Tank B, 25 mg/ kg of body weight oral in feed, 11/08/2023 (after one week), control Tank A 21.9
  Average lice per fish: 0.1
[2]; Tank B, 25 mg/ kg of body weight oral in feed, 11/08/2023 (after one week), control Tank A 329
  Total lice: 1
[2]; [4]
  Average lice per fish: 23.3
  Total lice: 350
[2]; Tank C, 56 mg/ kg body weight oral in feed, 11/08/2023 (after one week), control Tank A 21.9
  Average lice per fish: 0
[2]; Tank C, 56 mg/ kg body weight oral in feed, 11/08/2023 (after one week), control Tank A 329
  Total lice: 0
[2]; after one week, control tank remained high
  total lice numbers on the salmon that received the treatment: significantly reduced
[2]; preliminary study, oral in feed, 25 and 56 mg/kg
  efficacy in treating L. salmonis in Atlantic salmon: highly effective
